Reference: ChEMBL document CHEMBL3991945, “TASPASE1 inhibitors and their uses” (2013)
Activity calls are given as the source filed them. The calls are words filed in the database; no cut-off is given here. Residues, ends and D or L forms follow the SMILES beside them. *: point of attachment. CH2Cl = ClC*

Tests used:
[1] = target: T1, Threonine aspartase 1 (Homo sapiens, UniProt Q9H6P5); assay: Inhibition of recombinant Taspase1 (unknown origin) using [35S]-methionine labeled human MLL1 (2400-2900 residues) as substrate preincubated for 30 mins followed by substrate addition measured after 30 mins by SDS-PAGE based autoradiography
T1 sequence (Q9H6P5 whole entry): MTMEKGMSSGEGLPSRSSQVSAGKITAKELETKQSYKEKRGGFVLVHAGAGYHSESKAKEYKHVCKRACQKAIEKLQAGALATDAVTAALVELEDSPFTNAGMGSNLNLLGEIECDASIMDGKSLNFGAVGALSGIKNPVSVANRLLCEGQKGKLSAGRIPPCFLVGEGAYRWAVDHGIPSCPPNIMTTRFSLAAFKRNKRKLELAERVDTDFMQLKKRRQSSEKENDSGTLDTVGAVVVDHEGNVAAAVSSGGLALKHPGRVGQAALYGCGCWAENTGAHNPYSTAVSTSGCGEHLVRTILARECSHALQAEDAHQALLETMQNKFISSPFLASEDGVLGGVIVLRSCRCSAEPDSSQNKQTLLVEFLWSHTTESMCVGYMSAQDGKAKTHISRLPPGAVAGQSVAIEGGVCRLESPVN

[2] = target: T2, Threonine aspartase 1 (Homo sapiens) (UniProt Q9H6P5); assay: Inhibition of recombinant Taspase1 (unknown origin) at 10 to 1000 uM using [35S]-methionine labeled human MLL1 (2400-2900 residues) as substrate preincubated for 30 mins followed by substrate addition measured after 30 mins by SDS-PAGE based autoradiography
T2 sequence (whole entry): T1 sequence (Q9H6P5 whole entry)

[3] = target: T2, Threonine aspartase 1 (Homo sapiens); assay: Inhibition of recombinant Taspase1 (unknown origin) up to 0.1 mM using [35S]-methionine labeled human MLL1 (2400-2900 residues) as substrate preincubated for 30 mins followed by substrate addition measured after 30 mins by SDS-PAGE based autoradiography
[4] = test system: SNB-75; assay: Growth inhibition of human SNB75 cells expressing Taspase1; type: functional, cell-based
[5] = test system: T47D; assay: Growth inhibition of human T47D cells expressing Taspase1; type: functional, cell-based
[6] = test system: MCF7; assay: Growth inhibition of human MCF7 cells expressing Taspase1; type: functional, cell-based
[7] = target: T2, Threonine aspartase 1 (Homo sapiens); assay: Covalent irreversible inhibition of recombinant Taspase1 (unknown origin) at 0.1 mM using [35S]-methionine labeled human MLL1 (2400-2900 residues) as substrate preincubated for 15 to 60 mins followed by substrate addition measured after 30 mins by SDS-PAGE based autoradiography
[8] = target: Caspase-8 (Homo sapiens) (UniProt Q14790); assay: Inhibition of recombinant caspase8 (unknown origin) at 1 mM using [35S]-methionine labeled p22 BID as substrate preincubated for 30 mins followed by substrate addition measured after 2 hrs by SDS-PAGE based autoradiography
Sequence of Caspase-8 (Homo sapiens) (Q14790 217-374 limits assumed): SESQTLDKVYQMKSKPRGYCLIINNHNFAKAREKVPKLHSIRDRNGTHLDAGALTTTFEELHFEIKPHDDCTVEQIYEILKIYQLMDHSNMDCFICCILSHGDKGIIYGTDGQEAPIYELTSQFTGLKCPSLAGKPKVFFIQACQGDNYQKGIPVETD
Sequence of Caspase-8 (Homo sapiens) (Q14790 385-479 limits assumed): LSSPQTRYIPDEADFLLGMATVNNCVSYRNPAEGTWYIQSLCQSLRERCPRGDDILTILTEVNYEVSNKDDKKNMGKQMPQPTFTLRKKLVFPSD

[9] = test system: MEF; assay: Growth inhibition of SV40 transformed Taspase1 deficient MEF after 2 days by MTT assay; type: functional, cell-based; settings: Mus musculus
[10] = test system: SF-268; assay: Growth inhibition of human SF268 cells expressing Taspase1; type: functional, cell-based
[11] = test system: BT-549; assay: Growth inhibition of human BT549 cells expressing Taspase1; type: functional, cell-based
[12] = test system: SF-539; assay: Growth inhibition of human SF539 cells expressing Taspase1; type: functional, cell-based
[13] = test system: Hs-578T; assay: Growth inhibition of human Hs578T cells expressing Taspase1; type: functional, cell-based
[14] = target: T2, Threonine aspartase 1 (Homo sapiens); assay: Inhibition of recombinant Taspase1 (unknown origin) at 1 mM using [35S]-methionine labeled human MLL1 (2400-2900 residues) as substrate preincubated for 30 mins followed by substrate addition measured after 30 mins by SDS-PAGE based autoradiography
[15] = test system: MEF; assay: Growth inhibition of SV40 transformed wild-type Taspase1 expressing MEF after 2 days by MTT ssay; type: functional, cell-based; settings: Mus musculus
[16] = target: T2, Threonine aspartase 1 (Homo sapiens); assay: Inhibition of recombinant Taspase1 (unknown origin) at 10 uM using [35S]-methionine labeled human MLL1 (2400-2900 residues) as substrate preincubated for 30 mins followed by substrate addition measured after 30 mins by SDS-PAGE based autoradiography
[17] = test system: SF-295; assay: Growth inhibition of human SF295 cells expressing Taspase1; type: functional, cell-based
[18] = test system: U-251; assay: Growth inhibition of human U251 cells expressing Taspase1; type: functional, cell-based
[19] = test system: MDA-MB-231; assay: Growth inhibition of human MDA-MB-231 cells expressing Taspase1; type: functional, cell-based

CC[C@H](C)[C@H](NC(=O)[C@H](CCCCN)NC(C)=O)C(=O)N[C@@H](CO)C(=O)N[C@@H](CCC(N)=O)C(=O)N[C@@H](CC(C)C)C(=O)N[C@H](C=O)CC(=O)O (Ac-KISQLD-aldehyde)
IC50 [1]: > 100 µM

CC[C@H](C)[C@H](NC(C)=O)C(=O)N[C@@H](CO)C(=O)N[C@@H](CCC(N)=O)C(=O)N[C@@H](CC(C)C)C(=O)N[C@@H](CC(=O)O)C(=O)CCl (Ac-ISQLD-CH2Cl)
IC50 [1]: > 100 µM

O=C(O)Cc1ccc(Oc2ccc(CC(=O)O)cc2)cc1
inhibition [2]: inactive

O=[As](O)(O)O
inhibition [3]: inactive

O=[As](O)(O)c1ccc(Cc2ccc([As](=O)(O)O)cc2)cc1
growth inhibition (GI) [4]: Active
growth inhibition (GI) [5]: Active
growth inhibition (GI) [6]: Active
inhibition [7]: inactive
inhibition [8]: inactive
growth inhibition (GI) [9]: inactive
growth inhibition (GI) [10]: Active
growth inhibition (GI) [11]: Active
growth inhibition (GI) [12]: Active
growth inhibition (GI) [13]: Active
inhibition [14]: Active
growth inhibition (GI) [15]: Active
inhibition [16]: Active
growth inhibition (GI) [17]: Active
growth inhibition (GI) [18]: Active
growth inhibition (GI) [19]: Active
